Reference: US9272047B2, “Use of biological surfactant as anti-inflammatory agent and tissue preservative solution” (Shaperon Inc., priority 2007, dated 2016)

Assays:
NF-κB = test: Inhibition of E. coli LPS-stimulated NF-κB activation (CD25 expression) in 3FP CHO cells; assay type: cell-based, Chinese hamster; conditions: live 7AAD(−) LPS-stimulated 3FP cells
Experimental: In order to evaluate the inhibition efficacy for the activation of E. coli LPS-stimulated NF-κB in a CHO cell, % expression of CD 25 in the CHO cell was evaluated as the following method, and FACS analysis after staining with 7-AAD was carried out to evaluate the cytotoxicity. Bile salts were classified into 3 groups based on their solubility in different solvents, as follows:
The CHO cells expressing CD25 under the regulation of a nuclear factor (NF-κB) promoter, shown FIG. 2A, were used for this experiment. Toll-like receptor 2 (TLR2) and CD14 gene-transformed CHO cells (hereinafter referred to as “3FP cells”) were also used.
The next day, the cultured cells were treated with bile acid derivatives and LPS, and were incubated in a CO2 incubator for 15 hr at 37° C.
After stimulating the above incubated cells for 15 hr, the culture solution was centrifuged (1200 rpm, 5 min, 4° C.) to remove the culture supernatant. The precipitate was washed twice with 200 μl of FACS buffer (1×PBS containing 1% BSA and 1 mM EDTA). 20 μl of blocking solution (PBS containing 1:10 of normal mouse serum and 1:3 of anti-human CD14/CD32 (BD, 2.4G2) was added to each well and reacted on an ice for 30 min. A mixture solution of anti-human CD25-PE (1:16) and anti-human CD14-FITC (1:32) was added to the well and then reacted on the ice for 30 min. The reaction mixture was washed twice with 200 μl of FACS buffer, and then 200 μl of 7-AAD (1:20) was added to the reaction mixture. After the reaction mixture was reacted on the ice for 10 min, CD25 expression efficacy and cytotoxicity were analyzed by using a flow cytometer.
In order to analyze living cells, 7-AAD(−) cells were selected and an activation of nuclear transcription factor was confirmed by the increase of CD25 expression.

dendritic cells [1] = test: Inhibition of E. coli LPS-induced activation of dendritic cells (CD40, CD80, CD86, I-Ab expression); assay type: cell-based, mouse; conditions: 100 ng/ml E. coli LPS; CD11c(+)/7AAD(−) dendritic cells
Experimental: In order to assay the effect of sodium glycocholate on the activation procedure of antigen presenting cells, which is induced by E. coli LPS, cells were separated from the bone marrow of recombination activating gene 2 (Rag2) deficient mouse. The separated cells were plated at 2×10^5 cells/well in a 96-well plate and then treated with 1.5 ng/ml of granulocyt-macrophage colony-stimulating factor (GM-CSF) and 0.75 ng/ml of interleukin-4 followed by the differentiation of the cells into dentritic cells through 6-day incubation.
The dendritic cells were well mixed with sodium glycocholate and LPS. The mixtures were stimulated for 18 hours at 37° C., and stained with anti-CD40-FITC, anti-CD80-FITC, anti-I-Ab-PE, anti-CD86-PE, 7AAD and anti-CD11c-APC, then the cells were assayed via a flow cytometer. Each group was treated and assayed at least twice, and the results were statistically analyzed through t-test. The results were p<0.05 compared with the experimental groups treated by only LPS.
As shown FIGS. 9A-9B to 11A-11B, in order to assay only living dedritic cells, CD11c(+)/7AAD(−) cells were selected and then the expressions of dendritic cell costimulatory molecules and I-Ab were assayed.

dendritic cells [2] = test: Inhibition of LPS-induced nitric oxide generation, dendritic cells (Griess); assay type: cell-based, mouse; conditions: dendritic cells stimulated by LPS, 18 hours
Experimental: (§1) Then, the resulting dendritic cell mixtures were plated, by […] each, in a 96-well plate. Griss reagents were added to each well, and the 96-well plate was covered with foils and kept reacting for 15 min at room temperature. Absorbance at 540 nm was measured using an ELISA reader. Macrophages separated from abdomen were also treated with sodium glycocholate, sodium taurochenodeoxycholate and sodium taurodeoxycholate, respectively, and then stimulated with LPS for 18 hours. Thereafter, the same experiments as the dentritic cells were performed to the macrophages.

macrophages = test: Inhibition of LPS-induced nitric oxide generation, macrophages (Griess); assay type: cell-based, mouse; conditions: macrophages stimulated by LPS, 18 hours
Experimental: as §1

Compound	inhibition effect for LPS-stimulated CD25 expression (NF-κB activation) (NF-κB)	increased expression of CD40, CD80, CD86 and I-Ab (dendritic cells [1])	generation of NO (dendritic cells [2])	generation of NO (macrophages)
C[C@H](CCC(=O)O)[C@H]1CC[C@H]2[C@@H]3[C@H](O)C[C@@H]4C[C@H](O)CC[C@]4(C)[C@H]3CC[C@]12C [chenodeoxycholic acid]	showed inhibition effects	–	–	–
C[C@H](CCC(=O)O)[C@H]1CC[C@H]2[C@@H]3[C@H](O)C[C@@H]4C[C@H](O)CC[C@]4(C)[C@H]3C[C@H](O)[C@]12C [cholic acid]	showed inhibition effects	–	–	–
C[C@H](CCC(=O)O)[C@H]1CC[C@H]2[C@@H]3C(=O)C[C@@H]4CC(=O)CC[C@]4(C)[C@H]3CC(=O)[C@]12C [dehydrocholic acid]	showed inhibition effects	–	–	–
C[C@H](CCC(=O)NCC(=O)O)[C@H]1CC[C@H]2[C@@H]3[C@H](O)C[C@@H]4C[C@H](O)CC[C@]4(C)[C@H]3C[C@H](O)[C@]12C [glycocholic acid hydrate]	showed inhibition effects	–	–	–
C[C@H](CCC(=O)NCC(=O)[O-])[C@H]1CC[C@H]2[C@@H]3[C@H](O)C[C@@H]4C[C@H](O)CC[C@]4(C)[C@H]3CC[C@]12C.[Na+] [sodium glycochenodeoxycholate]	showed an inhibition effect	–	–	–
C[C@H](CCC(=O)NCCS(=O)(=O)O)[C@H]1CC[C@H]2C3[C@H](O)C[C@@H]4C[C@H](O)CC[C@]4(C)[C@H]3CC[C@]12C (stereo partly drawn) [sodium taurochenodeoxycholate]	showed an inhibition effect	inhibited depending on the concentration	inhibited	inhibited
C[C@H](CCC(=O)NCCS(=O)(=O)O)[C@H]1CC[C@H]2[C@@H]3[C@H](O)C[C@@H]4C[C@H](O)CC[C@]4(C)[C@H]3C[C@H](O)[C@]12C [sodium taurocholate hydrate]	showed an inhibition effect	–	–	–
C[C@H](CCC(=O)NCCS(=O)(=O)[O-])[C@H]1CC[C@H]2[C@@H]3CC[C@@H]4C[C@H](O)CC[C@]4(C)[C@H]3C[C@H](O)[C@]12C.[Na+] [sodium taurodeoxycholate hydrate]	showed an inhibition effect	inhibited depending on the concentration	inhibited	inhibited
sodium deoxycholate	showed an inhibition effect	–	–	–
